The test addresses wild-type human cardiac sodium channel, hNav1.5 (Homo sapiens, UniProt Q14524). Kind of test: Late INa screening assay (QPatch whole cell patch clamp, HEK293). The following applies: HEK293, percent block of late INa; compound at 1 μM; 10 μM Tefluthrin; read-out: Late INa 1 μM. The format is cell-based. The method, then:
The late sodium current (Late INa) and peak sodium current (Peak INa) assays are performed on an automated electrophysiology platform, QPatch 16× (Sophion Bioscience, Copenhagen, Denmark), which uses the whole cell patch clamp technique to measure currents through the cell membrane of up to 16 cells at a time. The assay uses an HEK293 (human embryonic kidney) cell line heterologously expressing the wild-type human cardiac sodium channel, hNav1.5, purchased from Millipore (Billerica, Mass.). No beta subunits were coexpressed with the Na channel alpha subunit. Cells are maintained with standard tissue culture procedures and stable channel expression is maintained with 400 μg/mL Geneticin in the culture medium. Cells isolated for use on QPatch are incubated for 5 minutes in Detachin 1×(Genlantis, San Diego, USA) at 37° C. to ensure that 80-90% of the cells are single and not part of a cell cluster. Experiments are carried out at 23-25° C.
For both the Late INa and Peak INa assays, series resistance compensation is set to 100% and series resistance and whole-cell compensation are performed automatically. Currents are digitized at 25 kHz and low-pass filtered at 12 kHz and 10 kHz for the late and peak INa assays, respectively. Currents through open sodium channels are automatically recorded and stored in the Sophion Bioscience Oracle database (Sophion Bioscience, Copenhagen, Denmark). Analysis is performed using QPatch Assay and database software and data are compiled in Excel.
Compound stocks are routinely made by the Gilead Sample Bank in plastic vials to 10 mM in dimethyl sulfoxide (DMSO). In some cases, when compounds are not soluble in DMSO, they are made in 100% ethanol. Stocks are sonicated as necessary. The extracellular solution for screening Late INa is composed of: 140 mM NaCl, 4 mM KCl, 1.8 mM CaCl2, 0.75 mM MgCl2 and 5 mM HEPES with pH adjusted to 7.4 using NaOH. The intracellular solution used to perfuse the inside of the cells for both the Late INa and Peak INa assays contains: 120 mM CsF, 20 mM CsCl, 5 mM EGTA, 5 mM HEPES and pH adjusted to 7.4 with CsOH. Compounds are diluted in extracellular solution to 1 μM in glass vials and then transferred to glass well plates before robotic addition to the cells. The 0 mM Na extracellular solution (0Na-ECF) used at the end of each experiment for the Late INa and Peak INa assays to measure baseline current contains: 140 mM N-methyl-D-glucamine; 4 mM KCl; 1.8 mM CaCl2; 0.75 mM MgCl2; 5 mM HEPES and pH was adjusted to 7.4 with HCl.
For the Late INa assay, sodium channels are activated every 10 seconds (0.1 Hz) by depolarizing the cell membrane to −20 mV for 250 milliseconds (ms) from a holding potential of −120 mV. In response to a −20 mV voltage step, typical hNav1.5 sodium currents activate rapidly to a peak negative current and then inactivate nearly completely within 3-4 ms.
Compounds were tested to determine their activity in blocking the late sodium current. Late INa was generated by adding 10 μM Tefluthrin (pyrethroid) to the extracellular solution while recording Na currents. […] ATX-II and tefluthrin occupy distinct, non-overlapping binding sites and modify Na^+ channel function differently to increase late INa. […] After establishing the whole cell recording configuration, late INa activator is added to each well 4 times over a 16-17 minute period so that the late component of the Na current reaches a stable value.
Results are reported as percent block of late INa.
A general note: The patch-clamp technique gives a direct electrical read-out from membranes.
Chain of wild-type human cardiac sodium channel, hNav1.5 (Q14524 whole entry): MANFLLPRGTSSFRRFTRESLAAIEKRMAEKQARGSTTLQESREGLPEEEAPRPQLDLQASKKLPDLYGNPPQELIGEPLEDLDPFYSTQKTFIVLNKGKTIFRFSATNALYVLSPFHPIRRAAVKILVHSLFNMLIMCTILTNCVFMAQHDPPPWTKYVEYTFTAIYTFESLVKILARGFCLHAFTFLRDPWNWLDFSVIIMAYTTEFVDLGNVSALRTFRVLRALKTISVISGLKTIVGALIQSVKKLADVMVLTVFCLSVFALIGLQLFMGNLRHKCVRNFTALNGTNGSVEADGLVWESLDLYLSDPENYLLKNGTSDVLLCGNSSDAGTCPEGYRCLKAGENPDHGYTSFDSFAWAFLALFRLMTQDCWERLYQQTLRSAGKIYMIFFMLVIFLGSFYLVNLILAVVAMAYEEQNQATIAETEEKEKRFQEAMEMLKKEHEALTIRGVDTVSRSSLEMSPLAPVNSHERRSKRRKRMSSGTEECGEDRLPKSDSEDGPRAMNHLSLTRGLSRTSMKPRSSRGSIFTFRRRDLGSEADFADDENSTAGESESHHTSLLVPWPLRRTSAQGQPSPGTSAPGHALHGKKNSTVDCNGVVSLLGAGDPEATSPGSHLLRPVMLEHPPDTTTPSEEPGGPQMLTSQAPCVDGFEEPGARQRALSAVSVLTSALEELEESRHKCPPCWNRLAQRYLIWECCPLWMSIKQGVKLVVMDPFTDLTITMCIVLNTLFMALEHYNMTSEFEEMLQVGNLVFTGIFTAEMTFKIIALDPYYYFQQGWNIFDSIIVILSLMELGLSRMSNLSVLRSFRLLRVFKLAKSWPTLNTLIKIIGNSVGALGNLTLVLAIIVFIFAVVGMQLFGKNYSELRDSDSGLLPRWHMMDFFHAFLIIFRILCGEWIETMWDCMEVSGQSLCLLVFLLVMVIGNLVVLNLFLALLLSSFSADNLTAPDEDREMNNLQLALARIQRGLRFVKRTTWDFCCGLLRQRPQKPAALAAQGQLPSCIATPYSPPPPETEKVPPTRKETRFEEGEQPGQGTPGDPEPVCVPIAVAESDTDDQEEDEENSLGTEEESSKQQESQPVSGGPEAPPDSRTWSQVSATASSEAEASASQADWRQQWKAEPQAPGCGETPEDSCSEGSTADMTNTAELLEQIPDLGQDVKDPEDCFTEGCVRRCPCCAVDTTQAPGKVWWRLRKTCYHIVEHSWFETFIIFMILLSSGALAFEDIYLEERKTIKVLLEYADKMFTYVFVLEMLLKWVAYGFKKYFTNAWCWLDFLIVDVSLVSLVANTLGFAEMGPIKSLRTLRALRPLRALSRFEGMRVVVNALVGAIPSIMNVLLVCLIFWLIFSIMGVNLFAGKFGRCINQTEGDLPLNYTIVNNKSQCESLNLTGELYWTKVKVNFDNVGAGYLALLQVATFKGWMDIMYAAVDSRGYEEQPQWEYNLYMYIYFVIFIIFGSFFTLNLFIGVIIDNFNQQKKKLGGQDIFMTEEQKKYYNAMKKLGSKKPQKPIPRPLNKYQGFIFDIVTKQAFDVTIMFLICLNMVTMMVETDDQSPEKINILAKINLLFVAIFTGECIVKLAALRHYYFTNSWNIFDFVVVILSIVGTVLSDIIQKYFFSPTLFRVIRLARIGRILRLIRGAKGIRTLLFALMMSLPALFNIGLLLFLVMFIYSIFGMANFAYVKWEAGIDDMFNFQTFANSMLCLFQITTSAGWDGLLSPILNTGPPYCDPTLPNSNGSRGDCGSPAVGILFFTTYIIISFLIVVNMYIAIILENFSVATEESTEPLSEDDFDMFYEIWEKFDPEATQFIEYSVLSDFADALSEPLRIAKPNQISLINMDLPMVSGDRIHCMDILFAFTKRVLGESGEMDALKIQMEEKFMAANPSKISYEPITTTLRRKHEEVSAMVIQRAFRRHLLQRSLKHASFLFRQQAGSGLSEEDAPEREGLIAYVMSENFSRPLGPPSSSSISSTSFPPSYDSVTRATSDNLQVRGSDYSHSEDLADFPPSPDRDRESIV
For the molecule `O=C1c2cc(-c3ccc(OC(F)F)cc3)ccc2OCCN1Cc1ccccn1` [II-159, 7-(4-(difluoromethoxy)phenyl)-4-(pyridin-2-ylmethyl)-3,4-dihydrobenzo[f][1,4]oxazepin-5(2H)-one], the inhibition at 1 µM stood at 28%.
Turning to `CCOC(=O)c1cccc(CN2CCOc3ccc(-c4ccc(OC(F)(F)F)cc4)cc3C2=O)c1` [II-43, ethyl 3-((5-oxo-7-(4-(trifluoromethoxy)phenyl)-2,3-dihydrobenzo[f][1,4]oxazepin-4(5H)-yl)methyl)benzoate], the inhibition at 1 µM came out at 23%.
The same measure for `O=C1c2cc(-c3ccc(F)c(F)c3)ccc2OCCN1Cc1ncccn1` [II-163, 7-(3,4-difluorophenyl)-4-(pyrimidin-2-ylmethyl)-3,4-dihydrobenzo[f][1,4]oxazepin-5 (2H)-one]: 28%; for `C[C@@H]1COc2ccc(-c3ccc(C(F)(F)F)cc3)cc2C(=O)N1` [II-19, (R)-3-methyl-7-(4-(trifluoromethyl)phenyl)-3,4-dihydrobenzo[f][1,4]oxazepin-5(2H)-one]: 21%; for `CCS(=O)(=O)NCCN1CCOc2ccc(-c3ccc(OC(F)(F)F)cc3)cc2C1=O` [II-178, N-(2-(5-oxo-7-(4-(trifluoromethoxy)phenyl)-2,3-dihydrobenzo[f][1,4]oxazepin-4(5H)-yl)ethyl)ethanesulfonamide]: 19%.
Take `O=C1c2cc(-c3ccc(F)cc3)ccc2OCCN1Cc1ncccn1` [II-104, 7-(4-fluorophenyl)-4-(pyrimidin-2-ylmethyl)-3,4-dihydrobenzo[f][1,4]oxazepin-5(2H)-one]: the inhibition at 1 µM is 21%.
The same measure for `O=C(c1nc[nH]n1)N1CCOc2ccc(-c3ccc(C(F)(F)F)cc3)cc2C1` [III-50, (1H-1,2,4-triazol-3-yl)(7-(4-(trifluoromethyl)phenyl)-2,3-dihydrobenzo[f][1,4]oxazepin-4(5H)-yl)methanone]: 24%; for `Cc1cc(C(F)(F)F)ccc1-c1ccc2c(c1)C(=O)N(Cc1ncccn1)CCO2` [II-145, 7-(2-methyl-4-(trifluoromethyl)phenyl)-4-(pyrimidin-2-ylmethyl)-3,4-dihydrobenzo[f][1,4]oxazepin-5(2H)-one]: 19%; for `O=C1c2cc(-c3ccc(OC(F)(F)F)cc3)ccc2OCCN1CCNS(=O)(=O)c1ccccc1` [II-177, N-(2-(5-oxo-7-(4-(trifluoromethoxy)phenyl)-2,3-dihydrobenzo[f][1,4]oxazepin-4(5H)-yl)ethyl)benzenesulfonamide]: 22%.
Consider `O=C1c2cc(-c3ccc(CC(F)(F)F)cc3)ccc2OCCN1Cc1ncccn1` [II-150, 4-(pyrimidin-2-ylmethyl)-7-(4-(2,2,2-trifluoroethyl)phenyl)-3,4-dihydrobenzo[f][1,4]oxazepin-5(2H)-one], for which the inhibition at 1 µM turned out to be 27%.
As for `N[C@H]1C[C@H]2COc3ccc(-c4ccc(C(F)(F)F)cc4)cc3C(=O)N2C1` [II-51, (2S,11aS)-2-amino-7-(4-(trifluoromethyl)phenyl)-2,3,11,11a-tetrahydrobenzo[f]pyrrolo[2,1-c][1,4]oxazepin-5(1H)-one], the inhibition at 1 µM turned out to be 20%.
The same measure for `O=C1c2ccc(-c3cccc(C(F)(F)F)c3)cc2OCCN1Cc1ncccn1` [IV-4, 4-(pyrimidin-2-ylmethyl)-8-(3-(trifluoromethyl)phenyl)-3,4-dihydrobenzo[f][1,4]oxazepin-5(2H)-one]: 14%.
`CC(C)COc1ccc(-c2ccc3c(c2)C(=O)N(Cc2ncccn2)CCO3)cc1` [II-97, 7-(4-isobutoxyphenyl)-4-(pyrimidin-2-ylmethyl)-3,4-dihydrobenzo[f][1,4]oxazepin-5 (2H)-one]: the inhibition at 1 µM stood at 36%.
`O=C1c2cc(-c3ccc(OC(F)(F)F)cc3)ncc2OCCN1Cc1ncccn1` [XII-5, 4-(pyrimidin-2-ylmethyl)-7-(4-(trifluoromethoxy)phenyl)-3,4-dihydropyrido[4,3-f][1,4]oxazepin-5(2H)-one]: the inhibition at 1 µM is 25%.
On to `O=C1c2cc(-c3ccc(OC(F)(F)F)cc3)ccc2OCCN1Cn1ccc(C(F)(F)F)n1` [II-148, 7-(4-(trifluoromethoxy)phenyl)-4-((3-(trifluoromethyl)-1H-pyrazol-1-yl)methyl)-3,4-dihydrobenzo[f][1,4]oxazepin-5(2H)-one], for which the inhibition at 1 µM stood at 17%.
Take `CC(C)c1nc(-c2ccc3c(c2)C(=O)N(Cc2ccccn2)CCO3)cs1` [VI-30, 7-(2-isopropylthiazol-4-yl)-4-(pyridin-2-ylmethyl)-3,4-dihydrobenzo[f][1,4]oxazepin-5(2H)-one]: the inhibition at 1 µM was 40%.
Turning to `O=C1c2cc(CCc3ccc(C(F)(F)F)cc3)ccc2OCCN1Cc1ccccc1` [VIII-11, 4-benzyl-7-(4-(trifluoromethyl)phenethyl)-3,4-dihydrobenzo[f][1,4]oxazepin-5(2H)-one], the inhibition at 1 µM came out at 42%.
For `O=C1c2cc(-c3ccc(OC(F)(F)F)cc3)ccc2OCCN1Cc1ncccc1F` [II-164, 4-((3-fluoropyridin-2-yl)methyl)-7-(4-(trifluoromethoxy)phenyl)-3,4-dihydrobenzo[f][1,4]oxazepin-5(2H)-one], the inhibition at 1 µM worked out at 75%.
Consider `CC1(CN2CCOc3ccc(-c4ccc(OC(F)(F)F)cc4)cc3C2=O)COC1` [II-1, 4-((3-methyloxetan-3-yl)methyl)-7-(4-(trifluoromethoxy)phenyl)-3,4-dihydrobenzo[f][1,4]oxazepin-5(2H)-one], for which the inhibition at 1 µM amounted to 25%.
To `O=C1c2cc(-c3ccc(OC(F)(F)F)cc3)ccc2OCCN1Cc1nccc(N2CCOCC2)n1` [II-133] belongs 23%.
To `O=C(C1CC(F)(F)C1)N1CCOc2ccc(-c3ccc(OC(F)(F)F)cc3)cc2C1` [III-11, (3,3-difluorocyclobutyl)(7-(4-(trifluoromethoxy)phenyl)-2,3-dihydrobenzo[f][1,4]oxazepin-4(5H)-yl)methanone] belongs 20%.
The same measure for `O=C1c2cc(-c3ccc(C4CC4)cc3)ccc2OCCN1Cc1ncccn1` [II-92, 7-(4-cyclopropylphenyl)-4-(pyrimidin-2-ylmethyl)-3,4-dihydrobenzo[f][1,4]oxazepin-5 (2H)-one]: 34%; for `O=C(NCCN1CCOc2ccc(-c3ccc(OC(F)(F)F)cc3)cc2C1=O)c1ncccn1` [II-192, N-(2-(5-oxo-7-(4-(trifluoromethoxy)phenyl)-2,3-dihydrobenzo[f][1,4]oxazepin-4(5H)-yl)ethyl)pyrimidine-2-carboxamide]: 15%; for `O=C1c2cc(-c3ccc(OC(F)(F)F)cc3)ccc2OCCN1Cc1ccc(C(F)(F)F)nc1` [II-16, 7-(4-(trifluoromethoxy)phenyl)-4-((6-(trifluoromethyl)pyridin-3-yl)methyl)-3,4-dihydrobenzo[f][1,4]oxazepin-5(2H)-one]: 19%.
On to `O=C1c2cc(-c3ccc(OC(F)(F)F)cc3)ccc2OCCN1CCCS(=O)(=O)NC1CC1` [II-190, N-cyclopropyl-3-(5-oxo-7-(4-(trifluoromethoxy)phenyl)-2,3-dihydrobenzo[f][1,4]oxazepin-4(5H)-yl)propane-1-sulfonamide], for which the inhibition at 1 µM worked out at 18%.
To `CC(C)c1ccc(-c2ccc3c(c2)C(=O)N(Cc2ncccn2)CCO3)cc1` [II-89, 7-(4-isopropylphenyl)-4-(pyrimidin-2-ylmethyl)-3,4-dihydrobenzo[f][1,4]oxazepin-5(2H)-one] belongs 28%.

The record behind these values is patent publication US9676760B2, “Fused heterocyclic compounds as ion channel modulators” (Gilead Sciences, Inc., priority 2011, dated 2017).
